One assay concerns the target D3 (Homo sapiens, UniProt P35462). Nature of the assay: Receptor selectivity binding, D3. The conditions noted are these: Table 3. The protocol:
(§1) For their high binding affinities for 5-HT2c, compounds in Examples 14 to 18, 20, and 22 or in Comparative Example 1 were used for the experiment with reaction mixtures. Except that CNS receptors such as 5-HT1a, 5-HT2a, 5-HT7, D2, D3 or D4 other than 5-HT2c were used as a receptor, IC50 values (nM) were measured in the same manner as in Experimental Example 1.

Assay [1] has as its target T1, human gene recombinant 5-HT2c receptor expressed in CHO-K1 cell (Homo sapiens, UniProt P28335).
T1 construct: purchased Euroscreen, Belgium; host or cells: CHO-K1
T1 sequence (P28335 33-458): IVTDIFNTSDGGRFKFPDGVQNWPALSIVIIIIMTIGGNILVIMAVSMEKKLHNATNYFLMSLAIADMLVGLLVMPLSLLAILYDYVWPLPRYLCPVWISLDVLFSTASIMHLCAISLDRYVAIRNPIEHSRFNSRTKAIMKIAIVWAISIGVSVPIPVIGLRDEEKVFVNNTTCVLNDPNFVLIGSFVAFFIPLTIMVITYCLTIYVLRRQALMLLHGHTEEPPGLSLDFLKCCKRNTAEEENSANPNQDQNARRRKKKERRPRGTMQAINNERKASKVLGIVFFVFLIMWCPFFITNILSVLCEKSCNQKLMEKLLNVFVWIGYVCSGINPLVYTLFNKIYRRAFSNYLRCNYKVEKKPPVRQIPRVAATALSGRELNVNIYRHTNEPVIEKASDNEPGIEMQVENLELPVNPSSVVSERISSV
Nature of the assay: Binding affinity to the serotonin 5-HT2c receptor ([3H]mesulergine). As to the method:
As a receptor, a human gene recombinant 5-HT2c receptor expressed in CHO—K1 cell was purchased from Euroscreen, Belgium and used in the experiment, and as a radioactive isotope, [3H]mesulergine (Amersham Biosciences, UK).
A final volume of 0.25 ml reaction mixture was prepared by adding 50 mM Tris-HCl buffer (pH 7.7) containing one of the compounds in Examples 1-29 or Comparative Examples 1-2, 1 nM of [3H]mesulergine, 5-HT2c receptor membranes (4 D/well), 0.1% ascorbic acid and 10 µM pargyline, and incubated at 37° C. for 30 minutes. After incubation, the reaction was terminated by the rapid filtration using an Inotech harvester (Inotech) through a Wallace GF/C glass fiber filter (Wallac, Finland) which was presoaked in 1% BSA, and then washed with ice-cold 50 mM Tris-HCl buffer. The filter was covered with MeltiLex, sealed in a sample bag followed by drying in the oven, and counted by MicroBeta Plus (Wallac). Non-specific binding was determined in the presence of […] Mianserin. Three repeating experiments were carried out with 7-8 concentrations of the compound in Examples 1-29 or the compound in comparative examples 1-2, run in duplicate tubes, and isotherms from the three assays were calculated by a nonlinear regression analysis (GraphPad Prism Program, San Diego, USA) to yield IC50 values.

The next assay has as its target T2, 5-HT1a (Homo sapiens, UniProt P08908).
T2 sequence (P08908 1-422): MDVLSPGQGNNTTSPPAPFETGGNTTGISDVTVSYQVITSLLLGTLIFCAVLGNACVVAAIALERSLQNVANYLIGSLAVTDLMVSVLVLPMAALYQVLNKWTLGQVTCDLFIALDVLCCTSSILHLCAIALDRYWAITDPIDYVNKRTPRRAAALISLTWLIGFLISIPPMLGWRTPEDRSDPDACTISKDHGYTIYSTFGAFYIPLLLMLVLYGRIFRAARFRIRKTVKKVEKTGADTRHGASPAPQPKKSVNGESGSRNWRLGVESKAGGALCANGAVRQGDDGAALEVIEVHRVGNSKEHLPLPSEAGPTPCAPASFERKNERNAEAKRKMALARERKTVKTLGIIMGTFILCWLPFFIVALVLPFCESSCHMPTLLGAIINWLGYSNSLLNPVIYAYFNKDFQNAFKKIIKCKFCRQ
Nature of the assay: Receptor selectivity binding, 5-HT1a. The conditions noted are these: Table 3. As to the method:
as §1

A further assay addresses 5-HT7 (Homo sapiens, UniProt P34969). Nature of the assay: Receptor selectivity binding, 5-HT7. The conditions noted are these: Table 3. As to the method: as §1
Another assay addresses D2 (Homo sapiens, UniProt P14416). Nature of the assay: Receptor selectivity binding, D2. The settings on record: Table 3. As to the method: as §1
A further assay concerns the target T3, D4 (Homo sapiens, UniProt P21917).
T3 sequence (P21917 1-419): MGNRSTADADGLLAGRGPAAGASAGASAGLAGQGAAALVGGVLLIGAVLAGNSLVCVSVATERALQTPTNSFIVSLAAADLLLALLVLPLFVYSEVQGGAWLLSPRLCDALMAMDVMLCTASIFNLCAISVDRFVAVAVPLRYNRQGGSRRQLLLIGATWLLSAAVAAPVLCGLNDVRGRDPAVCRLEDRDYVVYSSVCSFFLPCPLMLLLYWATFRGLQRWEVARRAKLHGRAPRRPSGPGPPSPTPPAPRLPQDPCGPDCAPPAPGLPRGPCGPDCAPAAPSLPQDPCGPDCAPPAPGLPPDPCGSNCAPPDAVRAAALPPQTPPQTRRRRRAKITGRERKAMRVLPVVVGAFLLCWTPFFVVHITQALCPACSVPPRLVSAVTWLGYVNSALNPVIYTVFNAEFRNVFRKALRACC
Nature of the assay: Receptor selectivity binding, D4. The conditions noted are these: Table 3. As to the method: as §1

In the next assay the target is 5-HT2a (Homo sapiens, UniProt P28223). Nature of the assay: Receptor selectivity binding, 5-HT2a. The conditions noted are these: Table 3. The protocol:
as §1

The next assay concerns the target 5-HT6 (Homo sapiens, UniProt P50406). Nature of the assay: Receptor selectivity binding, 5-HT6. The settings on record: Table 3. The protocol:
as §1

[2] abbreviates: [3H]mesulergine 1 nM, 37° C. 30 minutes, Table 2, read-out: IC50.

Like-named read-outs stand apart in the source and are kept apart here. Where only a bound is given, the exact number is not on record here.

Chain of 5-HT6 (P50406 whole entry, species assumed): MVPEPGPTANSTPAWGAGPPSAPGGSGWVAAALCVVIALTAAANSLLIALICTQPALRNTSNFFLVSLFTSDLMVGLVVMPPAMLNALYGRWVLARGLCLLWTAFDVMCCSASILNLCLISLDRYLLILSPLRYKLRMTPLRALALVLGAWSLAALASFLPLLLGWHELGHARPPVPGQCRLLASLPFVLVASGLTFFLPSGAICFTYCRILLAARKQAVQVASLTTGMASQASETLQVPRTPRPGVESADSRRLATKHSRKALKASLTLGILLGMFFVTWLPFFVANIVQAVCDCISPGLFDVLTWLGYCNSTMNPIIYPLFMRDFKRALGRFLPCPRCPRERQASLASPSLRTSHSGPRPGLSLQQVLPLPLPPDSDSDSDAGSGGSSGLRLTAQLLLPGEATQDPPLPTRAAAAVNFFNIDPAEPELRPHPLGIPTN
Chain of 5-HT2a (P28223 whole entry, species assumed): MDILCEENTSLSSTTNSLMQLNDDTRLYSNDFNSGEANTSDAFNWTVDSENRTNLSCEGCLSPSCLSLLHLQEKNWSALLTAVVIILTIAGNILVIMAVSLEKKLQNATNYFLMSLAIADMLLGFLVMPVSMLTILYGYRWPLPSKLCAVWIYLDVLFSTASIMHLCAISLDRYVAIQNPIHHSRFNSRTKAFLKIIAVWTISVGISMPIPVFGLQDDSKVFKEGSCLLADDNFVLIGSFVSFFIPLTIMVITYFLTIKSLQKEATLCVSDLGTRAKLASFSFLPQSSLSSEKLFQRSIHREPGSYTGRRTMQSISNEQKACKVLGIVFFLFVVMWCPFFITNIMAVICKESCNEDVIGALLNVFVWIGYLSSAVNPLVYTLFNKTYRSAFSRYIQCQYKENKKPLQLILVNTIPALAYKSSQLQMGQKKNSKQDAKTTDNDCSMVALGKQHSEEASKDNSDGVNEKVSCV
Chain of 5-HT7 (P34969 whole entry, species assumed): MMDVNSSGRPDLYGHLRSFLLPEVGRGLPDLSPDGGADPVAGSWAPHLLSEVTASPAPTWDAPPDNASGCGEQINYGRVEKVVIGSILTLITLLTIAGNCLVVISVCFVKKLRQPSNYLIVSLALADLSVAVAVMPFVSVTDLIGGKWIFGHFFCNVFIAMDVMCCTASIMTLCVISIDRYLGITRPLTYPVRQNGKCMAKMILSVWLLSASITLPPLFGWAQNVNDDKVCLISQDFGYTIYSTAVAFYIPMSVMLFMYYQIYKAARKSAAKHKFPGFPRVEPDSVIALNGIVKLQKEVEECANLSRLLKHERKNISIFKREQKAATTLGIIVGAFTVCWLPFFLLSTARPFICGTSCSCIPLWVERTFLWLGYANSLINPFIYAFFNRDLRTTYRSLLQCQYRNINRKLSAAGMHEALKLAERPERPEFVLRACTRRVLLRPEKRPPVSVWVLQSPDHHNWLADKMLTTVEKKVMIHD
Chain of D3 (P35462 whole entry): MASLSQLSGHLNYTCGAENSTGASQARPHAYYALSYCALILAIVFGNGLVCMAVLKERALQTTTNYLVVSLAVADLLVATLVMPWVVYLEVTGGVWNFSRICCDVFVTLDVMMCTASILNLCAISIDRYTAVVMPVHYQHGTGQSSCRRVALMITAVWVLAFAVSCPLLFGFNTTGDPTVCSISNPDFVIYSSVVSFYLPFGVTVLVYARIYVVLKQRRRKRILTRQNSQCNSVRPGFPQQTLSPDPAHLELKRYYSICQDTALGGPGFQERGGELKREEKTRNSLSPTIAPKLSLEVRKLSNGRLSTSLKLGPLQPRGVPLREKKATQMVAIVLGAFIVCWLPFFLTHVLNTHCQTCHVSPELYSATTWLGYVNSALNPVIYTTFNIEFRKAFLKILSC
Chain of D2 (P14416 whole entry): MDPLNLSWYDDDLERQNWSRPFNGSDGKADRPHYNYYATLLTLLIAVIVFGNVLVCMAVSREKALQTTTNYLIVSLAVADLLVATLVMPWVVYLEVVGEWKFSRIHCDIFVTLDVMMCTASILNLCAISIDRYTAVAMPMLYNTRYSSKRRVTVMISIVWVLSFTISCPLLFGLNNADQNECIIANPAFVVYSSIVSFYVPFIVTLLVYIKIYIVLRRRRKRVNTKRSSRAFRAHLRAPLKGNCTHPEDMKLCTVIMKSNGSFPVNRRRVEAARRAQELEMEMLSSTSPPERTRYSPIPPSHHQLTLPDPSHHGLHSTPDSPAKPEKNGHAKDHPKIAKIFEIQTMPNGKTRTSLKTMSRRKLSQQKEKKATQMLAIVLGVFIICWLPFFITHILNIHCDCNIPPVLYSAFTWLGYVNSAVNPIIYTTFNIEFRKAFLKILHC

Consider `Cc1ccc2c(C(=O)Nc3ccc(Oc4cccnc4C)nc3)c[nH]c2c1` [Example 16, 6-methyl-1H-indole-3-carboxylic acid[6-(2-methyl-pyridine-3-yloxy)-pyridine-3-yl]-amide], for which the IC50 at D3 was above 10 µM; in assay [1] (Table 3, read-out: IC50 5-HT2c), 0.0019 µM; in assay [1] (setting [2]) it was 0.0019 µM; on 5-HT1a it was above 10 µM; on 5-HT7, above 10 µM; on D2, above 10 µM. Further, the IC50 at D4, on 5-HT2a and on 5-HT6 was above 10 µM each time.

For the compound `Cc1ncccc1Oc1ccc(NC(=O)c2c[nH]c3c(C)cccc23)cn1` [Example 17, 7-methyl-1H-indole-3-carboxylic acid[6-(2-methyl-pyridine-3-yloxy)-pyridine-3-yl]-amide], the IC50 at D3 was above 10 µM; in assay [1] (Table 3, read-out: IC50 5-HT2c) it was 0.0082 µM; in assay [1] (setting [2]) it was 0.0082 µM; at 5-HT1a, above 10 µM; at 5-HT7 it was above 10 µM; on D2, above 10 µM. Also, the IC50 on D4, on 5-HT2a and at 5-HT6 was above 10 µM each time.

For the compound `COc1ccc2[nH]cc(C(=O)Nc3ccc(Oc4cccnc4C)nc3)c2c1` [Example 15, 5-methoxy-1H-indole-3-carboxylic acid[6-(2-methyl-pyridine-3-yloxy)-pyridine-3-yl]-amide], the IC50 at D3 was above 10 µM; in assay [1] (Table 3, read-out: IC50 5-HT2c), 0.0107 µM; in assay [1] (setting [2]), 0.0107 µM; on 5-HT1a it was above 10 µM; at 5-HT7, above 10 µM; at D2, above 10 µM. For the same compound, the IC50 on D4, on 5-HT2a and at 5-HT6 was above 10 µM in each case.

For the compound `Cc1ccc2[nH]cc(C(=O)Nc3ccc(Oc4cccnc4C)nc3)c2c1` [Example 14, 5-methyl-1H-indole-3-carboxylic acid[6-(2-methyl-pyridine-3-yloxy)-pyridine-3-yl]-amide], the IC50 on D3 is above 10 µM; in assay [1] (Table 3, read-out: IC50 5-HT2c), 0.0045 µM; in assay [1] (setting [2]) it was 0.0045 µM; on 5-HT1a, above 10 µM; on 5-HT7 it was above 10 µM; at D2 it was above 10 µM. The values for the IC50 at D4, at 5-HT2a and on 5-HT6 were above 10 µM, above 1 µM and above 10 µM, respectively.

In the case of `O=C(Nc1ccc(OCc2ccccn2)nc1)c1c[nH]c2ccccc12` [Example 20, 1H-indole-3-carboxylic acid[6-(pyridine-2-ylmethoxy)-pyridine-3-yl]-amide], the IC50 at D3 is above 10 µM; in assay [1] (Table 3, read-out: IC50 5-HT2c), 0.0059 µM; in assay [1] (setting [2]), 0.0059 µM; at 5-HT1a it was above 10 µM; at 5-HT7 it was above 10 µM; on D2, above 10 µM. The IC50 at D4 is above 10 µM; at 5-HT2a it was above 10 µM; at 5-HT6, above 1 µM.

With `Cc1ncccc1Oc1ccc(NC(=O)c2c[nH]c3ccc(I)cc23)cn1` [Example 18, 5-iodo-1H-indole-3-carboxylic acid[6-(2-methyl-pyridine-3-yloxy)-pyridine-3-yl]-amide], the IC50 was above 1 µM on D3; 0.00062 µM in assay [1] (Table 3, read-out: IC50 5-HT2c); 0.0006 µM in assay [1] (setting [2]); 0.78 µM on 5-HT1a; above 1 µM at 5-HT7; above 10 µM on D2. Further, the figures for the IC50 at D4, at 5-HT2a and on 5-HT6 were above 1 µM, 0.0847 µM and above 1 µM, respectively.

Turning to `Cc1cc2c(cc1C(F)(F)F)N(C(=O)Nc1ccc(Oc3cccnc3C)nc1)CC2` [Comparative Example 1, SB-243213, reference compound], the IC50 on D3 is above 1 µM; in assay [1] (Table 3, read-out: IC50 5-HT2c), 0.0007 µM; in assay [1] (setting [2]), 0.0007 µM; at 5-HT1a it was above 1 µM; at 5-HT7, above 1 µM; on D2 it was above 1 µM. In addition, the IC50 at D4 was above 10 µM; at 5-HT2a, 0.0324 µM; at 5-HT6 it was 0.667 µM.

Source of the values: patent US8324246B2, “Indol carboxylic acid bispyridyl carboxamide derivatives, pharmaceutically acceptable salt thereof, preparation method and composition containing the same as an active ingredient” (Korea Research Institute of Chemical Technology, priority 2008, dated 2012).
